{"source": "patent US20240216332A1", "about": "“METHOD AND PHARMACEUTICAL COMPOSITION FOR TREATING MYOPIA” (GRAND PHARMA (CHINA) CO., LTD., priority 2021, published 2024)", "key": {"[1]": {"tested_on": "form deprivation myopia guinea pigs", "test": "Sorbinil and Zopolrestat in form deprivation myopia model, Example 9", "settings": "FD, Sorbinil 100 μM, Zopolrestat 1 mM; for diopter or axial length parameter versus the vehicle group: each test time point (1-week, 2-week), FIG. 13; for corneal curvature, anterior chamber depth and lens thickness: FIG. 14"}, "[2]": {"tested_on": "form deprivation myopia guinea pigs", "test": "m-Hydroxy methylaniline in form deprivation myopia model, Example 10", "format": "in vivo, guinea pig", "settings": "FD; for effect of preventing or treating myopia: subconjunctival injection 100 μl once daily for 1 week, atropine 0.1%", "method": "The efficacy was evaluated using the guinea pig in form deprivation myopia model described in this application. All subjects were measured for diopter and axial length. […] Diopter and axis length parameters were measured at the beginning and after the end of the efficacy experiment."}, "[3]": {"tested_on": "form deprivation myopia guinea pigs", "test": "Direct eye drop administration in form deprivation myopia model, Example 7", "settings": "for inhibition rate on myopia: direct eye drop 25 μl twice per day, 0.5% bendazac lysine (self-made); for elongation of axial length compared with the normal saline group: eye drop twice per day for 2 weeks, statistical difference", "description": "All efficacy experiments above were repeated at least twice."}, "[4]": {"tested_on": "form deprivation myopia (FDM) guinea pigs", "test": "Dose-response of bendazac lysine (0.01%-0.5%) in form deprivation myopia model, Example 5", "description": "To be more intuitive, percentage are converted to milligram units when plotting."}, "[5]": {"tested_on": "form deprivation myopia (FDM) guinea pigs", "test": "Choroidal thickness (OCT) in FDM model, Example 6", "format": "in vivo, guinea pig", "method": "(§1) The lenses were purchased from Wenzhou Focusee Technology Co. Ltd. The specific parameters were: center degree 4D, base curve 16 mm, and diameter 11.8 mm. The lenses were fixed in front of the right eye (experimental eye) of the guinea pig and the left eye (fellow eye) was left untreated. […] The choroidal thickness of all eyes in the two myopia models was detected by Spectralis HRA+OCT (Heidelberg Engineering, Heidelberg, Germany) at 30-60 min after the last administration. […] The statistical method was an independent sample T-test."}, "[6]": {"tested_on": "form deprivation myopia guinea pigs", "test": "Lysine alone and bendazac alone in form deprivation myopia model, Example 8", "format": "in vivo, guinea pig", "settings": "FD; for progress of myopia (diopter becoming negative, vitreous chamber depth, axial length): subconjunctival injection 100 μl once daily for 2 weeks, equimolar (11.669 mM) preparations, FIG. 8; for ocular abnormalities / pupil, corneal curvature, anterior chamber depth and lens thickness: subconjunctival injection once daily for 2 weeks; for pupil, corneal curvature, anterior chamber depth and lens thickness: FIGS. 10 and 11; for myopia inhibition rate compared with DMSO vehicle control group: bendazac 3.3 mg/ml (11.669 mM) subconjunctival injection 100 μl once daily"}, "[7]": {"tested_on": "guinea pigs with form deprivation myopia", "test": "Form deprivation (FD) myopia model, peribulbar injection, Example 3", "settings": "for induced myopia (diopter) / myopia inhibition rate compared with normal saline group: peribulbar injection once daily (bendazac lysine 0.5 mg/day; atropine 0.1%, 100 μL)"}, "[8]": {"tested_on": "lens induced myopia (LIM) guinea pigs", "test": "Choroidal thickness (OCT) in LIM model, Example 6", "format": "in vivo, guinea pig", "settings": "0.5% bendazac lysine (BDL(S)) subconjunctival injection once daily for 1 week, 30-60 min after last administration", "method": "as §1"}, "[9]": {"tested_on": "guinea pigs with lens induced myopia", "test": "Lens induced (LI, -4D lens) myopia model, peribulbar injection, Example 3", "format": "in vivo, guinea pig", "settings": "bendazac lysine 0.5 mg/day peribulbar injection"}, "[10]": {"settings": "m-hydroxy methylaniline 5 mM, FIG. 15"}, "[11]": {"settings": "FD, 0.5% bendazac lysine, 0.1% atropine"}, "[12]": {"settings": "LI (-4D lens), 1-week of administration"}}}
{"compound": "O=C1NC(=O)[C@@]2(CCOc3ccc(F)cc32)N1", "note": "[Sorbinil]", "values": [{"measurement": "diopter or axial length parameter versus the vehicle group", "setting": "[1]", "value": "no significant difference"}, {"measurement": "therapeutic effect on myopia", "setting": "[1]; subconjunctival injection 100 μl once daily for 2 weeks", "value": "no therapeutic effect on myopia"}, {"measurement": "corneal curvature, anterior chamber depth and lens thickness", "setting": "[1]", "value": "no effect"}]}
{"compound": "O=C(O)Cc1nn(Cc2nc3cc(C(F)(F)F)ccc3s2)c(=O)c2ccccc12", "note": "[Zopolrestat]", "values": [{"measurement": "diopter or axial length parameter versus the vehicle group", "setting": "[1]", "value": "no significant difference"}, {"measurement": "corneal curvature, anterior chamber depth and lens thickness", "setting": "[1]", "value": "no effect"}]}
{"compound": "CN1[C@@H]2CC[C@H]1C[C@@H](OC(=O)C(CO)c1ccccc1)C2", "note": "(some centres unmarked) [atropine]", "values": [{"measurement": "anterior chamber depth and lens thickness", "setting": "[2]; 0.1% atropine, FIG. 15", "value": "unaffected"}, {"measurement": "pupil", "setting": "[2]; 0.1% atropine, all animals tested in this group", "value": "pupil dilation"}, {"measurement": "effect of preventing or treating myopia", "setting": "[2]; [10]", "value": "normal effect for treating myopia"}, {"measurement": "therapeutic effect (diopter or axial length parameter)", "setting": "[3]; FD, 0.01% atropine eye drops, same administration conditions", "value": "No therapeutic effect was observed"}, {"measurement": "inhibition rate on myopia", "setting": "[3]; FD, 1-week, 0.1% atropine", "value": 28.1, "unit": "%"}, {"measurement": "inhibition rate on myopia", "setting": "[3]; FD, 2-week, 0.1% atropine", "value": 36.9, "unit": "%"}, {"measurement": "elongation of axial length compared with the normal saline group", "setting": "[3]; [11]", "value": "significantly inhibit elongation of axial length"}, {"measurement": "ocular adverse reactions during the administration", "setting": "[3]; FD, eye drop twice per day, 0.5% bendazac lysine, 0.1% atropine", "value": "pupil dilation adverse reactions"}, {"measurement": "corneal curvature, anterior chamber and lens", "setting": "[3]; FD, eye drop twice per day, 0.5% bendazac lysine, 0.1% atropine, FIG. 7", "value": "not affected"}]}
{"compound": "O=C(O)COc1nn(Cc2ccccc2)c2ccccc12", "note": "[bendazac lysine, L-lysine (1-benzyl-1H-indazol-3-yloxy) acetate]", "values": [{"measurement": "effect in terms of the parameter diopter", "setting": "[4]; FDM, 0.01% bendazac lysine, 2-week, no statistical difference", "value": "slightly stronger than the negative control group"}, {"measurement": "progress of myopia, dose-response", "setting": "[4]; FDM, 0.01%, 0.05%, 0.1%, 0.5% in normal saline, subconjunctival injection 100 μl once daily for 2 weeks", "value": "dose-dependently retarded the progress of myopia"}, {"measurement": "therapeutic effect on myopia (progress of diopter becoming negative)", "setting": "[4]; FDM, 0.05% and 0.1% bendazac lysine preparations", "value": "significant therapeutic effect on myopia"}, {"measurement": "increase in vitreous chamber depth (VCD) and elongation of axial length (AL)", "setting": "[4]; FDM, 0.05%, 0.1% and 0.5% bendazac lysine, FIG. 3", "value": "inhibit the increase in vitreous chamber depth (VCD) and the elongation of axial length (AL)"}, {"measurement": "therapeutic effect on myopia in terms of diopter, compared with 0.1% atropine", "setting": "[4]; FDM, 0.5% bendazac lysine, 1-week after administration, no statistical difference", "value": "better therapeutic effect on myopia than 0.1% atropine"}, {"measurement": "anterior chamber depth, lens thickness and pupil", "setting": "[4]; guinea pig, in vivo", "value": "not affected"}, {"measurement": "ocular irritation and ocular abnormalities during administration", "setting": "[4]; guinea pig, in vivo", "value": "No ocular irritation and any ocular abnormalities were observed"}, {"measurement": "corneal curvature (RCC), anterior chamber depth (ACD), lens thickness (LT)", "setting": "[5]; FDM and LIM, 0.5% BDL(S)", "value": "unaffected"}, {"measurement": "mean difference in choroidal thickness between the experimental eye and the fellow eye", "setting": "[5]; FDM, 0.5% bendazac lysine eye drops (BDL(S)) subconjunctival injection 100 μl once daily for 2 weeks, 30-60 min after last administration", "value": "−9.20", "unit": "μm"}, {"measurement": "progress of myopia (diopter becoming negative, vitreous chamber depth, axial length)", "setting": "[6]", "value": "effectively inhibited the progress of diopter becoming negative"}, {"measurement": "ocular abnormalities", "setting": "[6]", "value": "no obvious ocular abnormalities"}, {"measurement": "pupil, corneal curvature, anterior chamber depth and lens thickness", "setting": "[6]", "value": "not affected"}, {"measurement": "corneal curvature (RCC), anterior chamber depth (ACD), lens thickness (LT)", "setting": "[7]; FD and LI groups, 0.5 mg/day peribulbar injection, FIG. 2", "value": "not affected"}, {"measurement": "induced myopia (diopter)", "setting": "[7]; FD, 1-week of administration", "value": "−2.15±1.09", "unit": "D"}, {"measurement": "myopia inhibition rate compared with normal saline group", "setting": "[7]; FD, 1-week of administration", "value": 42.6, "unit": "%"}, {"measurement": "induced myopia (diopter)", "setting": "[7]; FD, 2-week of administration", "value": "−3.46", "unit": "D"}, {"measurement": "myopia inhibition rate compared with normal saline group", "setting": "[7]; FD, 2-week of administration", "value": 43.9, "unit": "%"}, {"measurement": "increase in vitreous chamber depth and axial length", "setting": "[7]; FD, bendazac lysine 0.5 mg/day peribulbar injection, FIG. 1", "value": "inhibited"}, {"measurement": "mean difference in choroidal thickness between the experimental and the fellow eyes", "setting": "[8]", "value": "−6.31", "unit": "μm"}, {"measurement": "inhibition rate on myopia", "setting": "[3]; FD, 1-week, 0.1% atropine", "value": 35.5, "unit": "%"}, {"measurement": "inhibition rate on myopia", "setting": "[3]; FD, 2-week, 0.1% atropine", "value": 33.9, "unit": "%"}, {"measurement": "elongation of axial length compared with the normal saline group", "setting": "[3]; [11]", "value": "significantly inhibit elongation of axial length"}, {"measurement": "corneal curvature, anterior chamber and lens", "setting": "[3]; guinea pig, in vivo", "value": "not affected"}, {"measurement": "ocular adverse reactions during the administration", "setting": "[3]; guinea pig, in vivo", "value": "no obvious ocular abnormalities"}, {"measurement": "induced myopia (diopter)", "setting": "[9]; [12]", "value": "−3.49±1.15", "unit": "D"}, {"measurement": "myopia inhibition rate compared to the normal saline group", "setting": "[9]; [12]", "value": 21.0, "unit": "%"}, {"measurement": "elongation of the vitreous chamber depth and the axial length", "setting": "[9]; LI, 1 week", "value": "inhibited"}]}
{"compound": "O=C(O)COc1nn(Cc2ccccc2)c2ccccc12", "note": "[bendazac, α-[(1-benzyl-1H-indazol-3-yl)oxy] acetic acid]", "values": [{"measurement": "myopia inhibition rate compared with DMSO vehicle control group", "setting": "[6]; 1-week", "value": 33.4, "unit": "%"}, {"measurement": "mean difference in the choroidal thickness between the experimental eyes and the fellow eyes", "setting": "[6]; 2-week after administration of bendazac alone, FIG. 12", "value": "−8.47", "unit": "μm"}, {"measurement": "myopia inhibition rate compared with DMSO vehicle control group", "setting": "[6]; 2-week", "value": 30.1, "unit": "%"}, {"measurement": "elongation of axial length and increase of vitreous chamber depth compared with the DMSO vehicle group", "setting": "[6]; bendazac alone, statistical difference, FIG. 9", "value": "significantly inhibited elongation of axial length and reduced the increase of vitreous chamber depth"}]}
{"compound": "NCCCC[C@H](N)C(=O)O", "note": "[lysine]", "values": [{"measurement": "progress of myopia (diopter becoming negative, vitreous chamber depth, axial length)", "setting": "[6]", "value": "no inhibitory effect on the progress of myopia"}, {"measurement": "ocular abnormalities", "setting": "[6]", "value": "no obvious ocular abnormalities"}, {"measurement": "pupil, corneal curvature, anterior chamber depth and lens thickness", "setting": "[6]", "value": "not affected"}]}
{"compound": "m-hydroxy methylaniline", "values": [{"measurement": "elongation of axial length and increase of vitreous chamber depth", "setting": "[2]; 1 week, m-hydroxy methylaniline 5 mM", "value": "no inhibitory effect on elongation of axial length and no slowing effect on the increase of vitreous chamber depth"}, {"measurement": "effect of preventing or treating myopia", "setting": "[2]; [10]", "value": "no effect of preventing or treating myopia"}]}
